Assay results reported in the NIST ThermoML archive (doi:10.1021/acs.jced.8b01247).
Numbers after ± are expanded uncertainties.

Experiments:
[1] = Boiling temperature at pressure P; details: Liquid, Ebulliometric method (Recirculating still)
[2] = 337.83 K; Liquid; Ebulliometric method (Recirculating still)

Boiling temperature at pressure P ([1]; 101.3 kPa) | Boiling temperature at pressure P ([1]; 166.8 kPa) | Boiling temperature at pressure P ([1]; 217.3 kPa) | Boiling temperature at pressure P ([1]; 257 kPa) | Boiling temperature at pressure P ([1]; 313.1 kPa) | Boiling temperature at pressure P ([1]; 387.5 kPa) | vapor or sublimation pressure [2] | Structure (SMILES)
109.7 ± 0.87 °C | 129.1 ± 1.3 °C | 139.94 ± 1.2 °C | 146.93 ± 1.2 °C | 155.67 ± 1.3 °C | 165.49 ± 1.5 °C | – | CCC(C)OCOC (configuration not stated) [2-(methoxymethoxy)butane]
– | – | – | – | – | – | 101.3 ± 2.3 kPa | CO [methanol]
